In the NIST ThermoML archive (doi:10.1021/je060271a):
Where “and” joins values, the source holds several entries; their conditions need not be identical. Equal values may be shown once.

Conditions: 283.16 K, Liquid, Vibrating tube method

CCCCCC(=O)OCC(COC(=O)CCCCC)(COC(=O)CCCCC)COC(=O)CCCCC [pentaerythritol tetrahexanoate]
Conditions	mass density
227.4 kPa	1004.4 kg/m3
235.2 kPa	1004.3 kg/m3
235.3 kPa	1004.3 kg/m3
237.1 kPa	1004.4 kg/m3
361.3 kPa	1004.3 kg/m3
363.1 kPa	1004.3 kg/m3
365.9 kPa	1004.3 kg/m3
403.2 kPa	1004.4 kg/m3
405.8 kPa	1004.3 kg/m3
408.6 kPa	1004.4 kg/m3
410.7 kPa	1004.4 kg/m3
439.2 kPa	1004.4 kg/m3
500.7 kPa	1004.3 kg/m3
504.2 kPa	1004.4 kg/m3
508.2 kPa	1004.5 kg/m3
663.2 kPa	1004.4 kg/m3
669.2 kPa	1004.5 kg/m3
813.4 kPa	1004.5 kg/m3
1597.6 kPa	1005.1 kg/m3
1612.4 kPa	1005 kg/m3
1627.1 kPa	1005.2 kg/m3
1642.8 kPa	1005.2 kg/m3
1657.5 kPa	1005.1 kg/m3
1675.4 kPa	1005.1 kg/m3
1690.5 kPa	1005.2 kg/m3
1705.1 kPa	1005.2 kg/m3
1720 kPa	1005.1 kg/m3
1767.2 kPa	1005.1 kg/m3
1782.2 kPa	1005.2 kg/m3
1800 kPa	1005.2 kg/m3
1833.4 kPa	1005.3 kg/m3
1844.8 kPa	1005.2 kg/m3
2221.4 kPa	1005.5 kg/m3
2237 kPa	1005.5 kg/m3
2251.7 kPa	1005.5 kg/m3
2267.5 kPa	1005.4 kg/m3
2279.3 kPa	1005.5 kg/m3
2540.2 kPa	1005.7 kg/m3
2564.1 kPa	1005.7 kg/m3
2812.8 kPa	1005.7 kg/m3
2855.3 kPa	1005.8 kg/m3
3252.2 kPa	1006 kg/m3
3270.9 kPa	1006.1 kg/m3
3286.9 kPa	1006.1 kg/m3
3302.6 kPa	1006.1 kg/m3
3318.6 kPa	1006.2 kg/m3
3372.5 kPa	1006.1 kg/m3
3388.4 kPa	1006.1 kg/m3
3420.8 kPa	1006.1 kg/m3
3440.8 kPa	1006.1 kg/m3
3456.7 kPa	1006.1 kg/m3
3473.5 kPa	1006.1 kg/m3
3493.4 kPa	1006.3 kg/m3
3510.2 kPa	1006.3 kg/m3
3530.5 kPa	1006.2 kg/m3
3547.3 kPa	1006.3 kg/m3
3564.3 kPa	1006.2 kg/m3
3581.1 kPa	1006.3 kg/m3
3601.7 kPa	1006.3 kg/m3
3619.1 kPa	1006.3 kg/m3
3636 kPa	1006.1 kg/m3
3657.3 kPa	1006.3 kg/m3
3674.7 kPa	1006.2 kg/m3
3692.2 kPa	1006.3 kg/m3
3709.8 kPa	1006.3 kg/m3
3730.8 kPa	1006.4 kg/m3
3748.8 kPa	1006.3 kg/m3
3766.1 kPa	1006.4 kg/m3
3784.2 kPa	1006.4 kg/m3
3805.3 kPa	1006.3 kg/m3
3823 kPa	1006.3 kg/m3
3841.3 kPa	1006.5 kg/m3
3863 kPa	1006.3 kg/m3
3877.2 kPa	1006.4 kg/m3
3895.2 kPa	1006.5 kg/m3
3920.3 kPa	1006.4 kg/m3
3938.5 kPa	1006.5 kg/m3
4764.4 kPa	1006.8 kg/m3
4769.6 kPa	1006.9 kg/m3
4781 kPa	1006.9 kg/m3
4797.5 kPa	1007 kg/m3
5309.2 kPa	1007.3 kg/m3
5315.8 kPa	1007.3 kg/m3
5321.5 kPa	1007.3 kg/m3
5327.9 kPa	1007.2 kg/m3
5334.1 kPa	1007.3 kg/m3
5341.5 kPa	1007.2 kg/m3
5347.3 kPa	1007.4 kg/m3
5354.7 kPa	1007.4 kg/m3
5361.1 kPa	1007.3 kg/m3
5367.3 kPa	1007.2 kg/m3
5373.4 kPa	1007.3 kg/m3
5380.6 kPa	1007.3 kg/m3
5386.9 kPa	1007.3 kg/m3
5392.9 kPa	1007.3 kg/m3
5400.4 kPa	1007.2 kg/m3
5406.9 kPa	1007.2 kg/m3
5413 kPa	1007.3 kg/m3
5419.4 kPa	1007.3 kg/m3
5426.8 kPa	1007.3 kg/m3
5432 kPa	1007.3 kg/m3
5438.4 kPa	1007.3 kg/m3
5446 kPa	1007.4 kg/m3
5521.9 kPa	1007.3 kg/m3
6618.4 kPa	1007.9 kg/m3
6623.1 kPa	1008.1 kg/m3
6626.7 kPa	1008 kg/m3
6630.5 kPa	1008.2 kg/m3
6653 kPa	1008 kg/m3
6657.1 kPa	1008.1 kg/m3
6661.4 kPa	1008 kg/m3
6666.3 kPa	1008 kg/m3
6670.4 kPa	1008 kg/m3
6722 kPa	1008 kg/m3
6726 kPa	1008.1 kg/m3
6730.2 kPa	1008.1 kg/m3
6734.1 kPa	1008.1 kg/m3
6738.3 kPa	1008 kg/m3
6743.3 kPa	1008.1 kg/m3
6747.1 kPa	1007.9 kg/m3
6750.9 kPa	1008 kg/m3
6755.6 kPa	1008 kg/m3
6763.5 kPa	1008.2 kg/m3
6768 kPa	1008 kg/m3
6772.6 kPa	1008 kg/m3
6775.9 kPa	1008.2 kg/m3 and 1008.1 kg/m3
6776.4 kPa	1008.1 kg/m3 and 1008 kg/m3
6783.8 kPa	1008 kg/m3
6784.2 kPa	1008.2 kg/m3
6784.5 kPa	1008 kg/m3
6785.8 kPa	1008.2 kg/m3
8353.5 kPa	1009.1 kg/m3
8367.6 kPa	1008.9 kg/m3
9689.3 kPa	1009.7 kg/m3 and 1009.8 kg/m3
9689.5 kPa	1009.7 kg/m3
9689.6 kPa	1009.7 kg/m3
9689.8 kPa	1009.7 kg/m3
9690.2 kPa	1009.8 kg/m3
9691.7 kPa	1009.7 kg/m3
9694.6 kPa	1009.8 kg/m3
9697.7 kPa	1009.8 kg/m3
9697.9 kPa	1009.8 kg/m3 and 1009.9 kg/m3
9702.1 kPa	1009.8 kg/m3
9711.5 kPa	1009.8 kg/m3
